Laboratory results: ChEMBL document CHEMBL5052836, “Interleukin-15 activity antagonist peptide” (2019)
Active and inactive are the calls of the source. The rule behind the calls is not given here.

What was measured:
[1] = Inhibition of cell proliferation in IL-15-induced mouse CTLL-2 cells measured after 72 hrs by MTT assay; format: functional, cell-based; details: CTLL-2, 72 h
Homo sapiens = species: Homo sapiens; assay: Antagonist activity at IL-15Ralpha (unknown origin) assessed as inhibition of IL-15/IL-15Ralpha complex formation at 20 ug/ml using TMB as substrate incubated for 1 hr and measured after 1 hr by ELISA relative to control; details: filed as antagonist, dose 20.0 µg/ml
Synovial cell [2] = assay: Inhibition of IL-15-induced IL-6 secretion in human synovial cells at 50 ug/ml and measured after 48 hrs by ELISA relative to control; format: functional, cell-based; details: dose 50.0 µg/ml
Synovial cell [3] = assay: Inhibition of IL-15-induced TNF-alpha secretion in human synovial cells at 50 ug/ml and measured after 48 hrs by ELISA relative to control; format: functional, cell-based; details: dose 50.0 µg/ml

inhibition (Homo sapiens) [%] | SMILES | IC50 [1] [µM] | inhibition (Synovial cell [2]) | inhibition (Synovial cell [3])
 | CSCC[C@H](NC(=O)[C@H](C)NC(=O)[C@H](NC(=O)[C@@H](NC(=O)[C@@H](N)CCCCN)C(C)C)[C@H](C)O)C(=O)N[C@@H](CCCCN)C(=O)N[C@@H](CS)C(=O)N[C@@H](Cc1ccccc1)C(=O)N[C@@H](CC(C)C)C(=O)N[C@@H](CC(C)C)C(=O)O | 159 |  | 
70 | CSCC[C@H](NC(=O)[C@H](C)NC(=O)[C@@H](NC(=O)[C@@H](NC(=O)[C@@H](N)CCCCN)C(C)C)[C@@H](C)O)C(=O)N[C@@H](CCCCN)C(=O)N[C@@H](CS)C(=O)N[C@@H](Cc1ccccc1)C(=O)N[C@@H](CC(C)C)C(=O)N[C@@H](CC(C)C)C(=O)O | 130 |  | 
89 | CSCC[C@H](NC(=O)[C@@H](C)NC(=O)[C@@H](NC(=O)[C@@H](NC(=O)[C@H](N)CCCCN)C(C)C)[C@@H](C)O)C(=O)N[C@@H](CCCCN)C(=O)N[C@@H](CS)C(=O)N[C@@H](Cc1ccccc1)C(=O)N[C@@H](CC(C)C)C(=O)N[C@@H](CC(C)C)C(=O)O | 29 | Active | Active
 | CSCC[C@H](NC(=O)[C@H](C)NC(=O)[C@@H](NC(=O)[C@@H](NC(=O)[C@@H](N)CCCCN)C(C)C)[C@@H](C)O)C(=O)N[C@@H](CCCCN)C(=O)N[C@@H](CS)C(=O)N[C@H](Cc1ccccc1)C(=O)N[C@@H](CC(C)C)C(=O)N[C@@H](CC(C)C)C(=O)O | 118 |  | 
92 | CSCC[C@H](NC(=O)[C@@H](C)NC(=O)[C@@H](NC(=O)[C@@H](NC(=O)[C@H](N)CCCCN)C(C)C)[C@@H](C)O)C(=O)N[C@@H](CCCCN)C(=O)N[C@@H](CSSC[C@H](NC(=O)[C@H](CCCCN)NC(=O)[C@H](CCSC)NC(=O)[C@@H](C)NC(=O)[C@@H](NC(=O)[C@@H](NC(=O)[C@H](N)CCCCN)C(C)C)[C@@H](C)O)C(=O)N[C@@H](Cc1ccccc1)C(=O)N[C@@H](CC(C)C)C(=O)N[C@@H](CC(C)C)C(=O)O)C(=O)N[C@@H](Cc1ccccc1)C(=O)N[C@@H](CC(C)C)C(=O)N[C@@H](CC(C)C)C(=O)O | 12 | Active | Active
 | CSCC[C@H](NC(=O)[C@H](C)NC(=O)[C@@H](NC(=O)[C@@H](NC(=O)[C@H](N)CCCCN)C(C)C)[C@@H](C)O)C(=O)N[C@@H](CCCCN)C(=O)N[C@@H](CS)C(=O)N[C@@H](Cc1ccccc1)C(=O)N[C@@H](CC(C)C)C(=O)N[C@@H](CC(C)C)C(=O)O | 100 |  | 
 | CSCC[C@H](NC(=O)[C@H](C)NC(=O)[C@@H](NC(=O)[C@@H](NC(=O)[C@@H](N)CCCCN)C(C)C)[C@@H](C)O)C(=O)N[C@@H](CCCCN)C(=O)N[C@H](CS)C(=O)N[C@@H](Cc1ccccc1)C(=O)N[C@@H](CC(C)C)C(=O)N[C@@H](CC(C)C)C(=O)O | 103 |  | 
 | CSCC[C@H](NC(=O)[C@H](C)NC(=O)[C@@H](NC(=O)[C@@H](NC(=O)[C@@H](N)CCCCN)C(C)C)[C@@H](C)O)C(=O)N[C@@H](CCCCN)C(=O)N[C@@H](CS)C(=O)N[C@@H](Cc1ccccc1)C(=O)N[C@@H](CC(C)C)C(=O)N[C@H](CC(C)C)C(=O)O | 133 |  | 
 | CSCC[C@H](NC(=O)[C@@H](C)NC(=O)[C@@H](NC(=O)[C@@H](NC(=O)[C@@H](N)CCCCN)C(C)C)[C@@H](C)O)C(=O)N[C@@H](CCCCN)C(=O)N[C@H](CSSC[C@@H](NC(=O)[C@H](CCCCN)NC(=O)[C@H](CCSC)NC(=O)[C@@H](C)NC(=O)[C@@H](NC(=O)[C@@H](NC(=O)[C@@H](N)CCCCN)C(C)C)[C@@H](C)O)C(=O)N[C@@H](Cc1ccccc1)C(=O)N[C@@H](CC(C)C)C(=O)N[C@@H](CC(C)C)C(=O)O)C(=O)N[C@@H](Cc1ccccc1)C(=O)N[C@@H](CC(C)C)C(=O)N[C@@H](CC(C)C)C(=O)O | 56 |  | 
 | CSCC[C@H](NC(=O)[C@H](C)NC(=O)[C@@H](NC(=O)[C@@H](NC(=O)[C@@H](N)CCCCN)C(C)C)[C@@H](C)O)C(=O)N[C@H](CCCCN)C(=O)N[C@@H](CS)C(=O)N[C@@H](Cc1ccccc1)C(=O)N[C@@H](CC(C)C)C(=O)N[C@@H](CC(C)C)C(=O)O | 168 |  | 
 | CSCC[C@H](NC(=O)[C@@H](C)NC(=O)[C@@H](NC(=O)[C@@H](NC(=O)[C@@H](N)CCCCN)C(C)C)[C@@H](C)O)C(=O)N[C@@H](CCCCN)C(=O)N[C@H](CS)C(=O)N[C@@H](Cc1ccccc1)C(=O)N[C@@H](CC(C)C)C(=O)N[C@@H](CC(C)C)C(=O)O | 296 |  | 
 | CSCC[C@H](NC(=O)[C@H](C)NC(=O)[C@@H](NC(=O)[C@@H](NC(=O)[C@@H](N)CCCCN)C(C)C)[C@@H](C)O)C(=O)N[C@@H](CCCCN)C(=O)N[C@@H](CS)C(=O)N[C@@H](Cc1ccccc1)C(=O)N[C@H](CC(C)C)C(=O)N[C@@H](CC(C)C)C(=O)O | 134 |  | 
96 | CSCC[C@H](NC(=O)[C@@H](C)NC(=O)[C@@H](NC(=O)[C@@H](NC(=O)[C@@H](N)CCCCN)C(C)C)[C@@H](C)O)C(=O)N[C@@H](CCCCN)C(=O)N[C@@H](CSSC[C@H](NC(=O)[C@H](CCCCN)NC(=O)[C@H](CCSC)NC(=O)[C@@H](C)NC(=O)[C@@H](NC(=O)[C@@H](NC(=O)[C@@H](N)CCCCN)C(C)C)[C@@H](C)O)C(=O)N[C@@H](Cc1ccccc1)C(=O)N[C@@H](CC(C)C)C(=O)N[C@@H](CC(C)C)C(=O)O)C(=O)N[C@@H](Cc1ccccc1)C(=O)N[C@@H](CC(C)C)C(=O)N[C@@H](CC(C)C)C(=O)O | 8 | Active | Active
92 | CSCC[C@H](NC(=O)[C@@H](C)NC(=O)[C@@H](NC(=O)[C@@H](NC(=O)[C@@H](N)CCCCN)C(C)C)[C@@H](C)O)C(=O)N[C@@H](CCCCN)C(=O)N[C@@H](CS)C(=O)N[C@@H](Cc1ccccc1)C(=O)N[C@@H](CC(C)C)C(=O)N[C@@H](CC(C)C)C(=O)O | 28 | Active | Active
 | CSCC[C@H](NC(=O)[C@H](C)NC(=O)[C@@H](NC(=O)[C@H](NC(=O)[C@@H](N)CCCCN)C(C)C)[C@@H](C)O)C(=O)N[C@@H](CCCCN)C(=O)N[C@@H](CS)C(=O)N[C@@H](Cc1ccccc1)C(=O)N[C@@H](CC(C)C)C(=O)N[C@@H](CC(C)C)C(=O)O | 142 |  | 
 | CSCC[C@@H](NC(=O)[C@H](C)NC(=O)[C@@H](NC(=O)[C@@H](NC(=O)[C@@H](N)CCCCN)C(C)C)[C@@H](C)O)C(=O)N[C@@H](CCCCN)C(=O)N[C@@H](CS)C(=O)N[C@@H](Cc1ccccc1)C(=O)N[C@@H](CC(C)C)C(=O)N[C@@H](CC(C)C)C(=O)O | 292 |  | 
